Earlier results as cited in publication PMC2936243 (Journal of neurochemistry, 2010).
Marks after values point to notes of the source that are not given here.

Experiments:
Conditions in all cases: cited from earlier work
[1] = test system: α3* and α6* containing nAChR subtypes
[2] = test system: nAChR subtypes that contain the α1 and α9 subunits
[3] = test system: GABAARs that contain the β3 subunit
[4] = test system: unknown site in brain tissue from α7 knockout mice

Substance	binding selectivity [1]	binding to α1 and α9 containing nAChRs [2]	binding to GABAARs [3]	residual binding in α7 knockout brain tissue [4]
monoiodinated α-conotoxin MII [[^125I]-α-CTx MII]	selectively binds to α3* and α6* containing nAChR subtypes			
α-bungarotoxin [α-BgTx]		also binds to non-α7 nAChR subtypes including those that contain the α1 and α9 subunits	binds to a subset of GABAARs that contain the β3 subunit	significant residual α-BgTx binding to an unknown site
